Read-outs that look alike come from different tables or passages of the source.
How the values were obtained:
Aqueous solubility = settings: for Solub.: aqueous solubility
[1] = Microsomal metabolic stability, rat liver microsomes (RLM); settings: rat liver microsomes
[2] = for PAMPA permeability: pH 7.4

| Solub. (Aqueous solubility) [µg/mL] | t1/2 (min, RLM) [1] [min] | PAMPA [2] [×10⁻⁶ cm/s] | PAMPA permeability [2] | solubility (Aqueous solubility) | Compound | PAMPA (PAMPA permeability) [×10⁻⁶ cm/s] |
| --- | --- | --- | --- | --- | --- | --- |
| >64 | >30 | <1 | – | – | CN1CCN(CC(=O)NCCCn2c(=O)c3cc(F)ccc3n3c(=S)[nH]nc23)CC1 [compound 117] | – |
| 13.0 | >30 | 355 | moderate to good permeability | – | O=c1c2cc(F)ccc2n2c(=S)[nH]nc2n1CCc1ccccn1 [compound 83] | – |
| >45 | >30 | 177 | – | – | CN(C)CCn1c(=O)c2cc(F)ccc2n2c(=S)[nH]nc12 [compound 70] | – |
| 2.4 | >30 | 358 | – | – | O=c1c2cc(F)ccc2n2c(=S)[nH]nc2n1CCN1CCCCC1 [compound 88] | – |
| >43 | >30 | 222 | – | – | O=c1c2cc(F)ccc2n2c(=S)[nH]nc2n1CCCO [compound 66] | – |
| >36 | >30 | 427 | – | – | CCn1c(=O)c2ccccc2n2c(=S)[nH]nc12 [compound 20] | – |
| <1 | >30 | 201 | – | – | O=c1c2cc(F)ccc2n2c(=S)[nH]nc2n1CCC1CCC(F)(F)CC1 [compound 93] | – |
| >58 | >30 | 155 | – | – | O=C(NCCCn1c(=O)c2cc(F)ccc2n2c(=S)[nH]nc12)C1CCCC1 [compound 108] | – |
| >62 | >30 | <1 | – | – | O=C(CN1CCOCC1)NCCCn1c(=O)c2cc(F)ccc2n2c(=S)[nH]nc12 [compound 118] | – |
| 20.2 | >30 | 234 | – | – | O=c1c2cc(F)ccc2n2c(=S)[nH]nc2n1CCN1CCC(F)(F)CC1 [compound 89] | – |
| >47 | >30 | 186 | – | – | CC(CN(C)C)n1c(=O)c2cc(F)ccc2n2c(=S)[nH]nc12 (stereo not drawn) [compound 71] | – |
| >52 | >30 | 67.0 | – | – | O=c1c2cc(F)ccc2n2c(=S)[nH]nc2n1CCN1CCOCC1 [compound 90] | – |
| >77 | 24.8 | 330 | – | – | CC(C)(C)OC(=O)NC1CCC(C(=O)NCCCn2c(=O)c3cc(F)ccc3n3c(=S)[nH]nc23)CC1 (stereo not drawn) [compound 110] | – |
| 8.3 | >30 | 841 | – | – | O=c1c2cc(F)ccc2n2c(=S)[nH]nc2n1Cc1ccccc1 [compound 52] | – |
| 5.1 | >30 | 257 | – | – | O=c1c2cc(Cl)ccc2n2c(=S)[nH]nc2n1CCC(F)(F)F [compound 55] | – |
| 21.9 | >30 | 267 | – | – | O=C(NCCCn1c(=O)c2cc(F)ccc2n2c(=S)[nH]nc12)c1ccccc1 [compound 74] | – |
| >58 | >30 | <1 | – | – | O=C(O)CCC(=O)NCCCn1c(=O)c2cc(F)ccc2n2c(=S)[nH]nc12 [compound 106] | – |
| 17.3 | >30 | 117 | moderate to good permeability | moderate to good solubility | O=c1c2cc(F)ccc2n2c(=S)[nH]nc2n1CCC(F)(F)F [compound 65] | – |

Continued, compound first:

| Compound | Solub. (Aqueous solubility) [µg/mL] | t1/2 (min, RLM) [1] [min] | PAMPA [2] [×10⁻⁶ cm/s] | PAMPA permeability [2] | solubility (Aqueous solubility) | PAMPA (PAMPA permeability) [×10⁻⁶ cm/s] |
| --- | --- | --- | --- | --- | --- | --- |
| O=C(Cc1ccccc1C(F)(F)F)NCCCn1c(=O)c2cc(F)ccc2n2c(=S)[nH]nc12 [compound 131, N-(3-(7-fluoro-5-oxo-1-thioxo-1,2-dihydro-[1,2,4]triazolo[4,3-a]quinazolin-4(5H)-yl)propyl)-2-(2-(trifluoromethyl)phenyl)acetamide] | 40.3 | 3.7 | – | – | – | 825 |
| COc1ccccc1CC(=O)NCCCn1c(=O)c2cc(F)ccc2n2c(=S)[nH]nc12 [compound 128, N-(3-(7-fluoro-5-oxo-1-thioxo-1,2-dihydro-[1,2,4]triazolo[4,3-a]quinazolin-4(5H)-yl)propyl)-2-(2-methoxyphenyl)acetamide] | >65 | 16.1 | – | – | – | 379 |
| O=c1c2cc(F)ccc2n2c(=S)[nH]nc2n1CCc1ccc(Cl)cc1 [compound 82] | 1.2 | >30 | <1 | – | – | – |
| CC(C)(C)OC(=O)Nc1ccc(CC(=O)NCCCn2c(=O)c3cc(F)ccc3n3c(=S)[nH]nc23)cc1 [compound 135, tert-butyl (4-(2-((3-(7-fluoro-5-oxo-1-thioxo-1,2-dihydro-[1,2,4]triazolo[4,3-a]quinazolin-4(5H)-yl)propyl)amino)-2-oxoethyl)phenyl)carbamate] | 17.4 | >30 | – | – | – | 910 |
| O=C(Cc1cccc(Cl)c1)NCCCn1c(=O)c2cc(F)ccc2n2c(=S)[nH]nc12 [compound 124, 2-(3-chlorophenyl)-N-(3-(7-fluoro-5-oxo-1-thioxo-1,2-dihydro-[1,2,4]triazolo[4,3-a]quinazolin-4(5H)-yl)propyl)acetamide] | >66 | 8.4 | – | – | – | 861 |
| O=C(Cc1cccc(F)c1)NCCCn1c(=O)c2cc(F)ccc2n2c(=S)[nH]nc12 [compound 122, N-(3-(7-fluoro-5-oxo-1-thioxo-1,2-dihydro-[1,2,4]triazolo[4,3-a]quinazolin-4(5H)-yl)propyl)-2-(3-fluorophenyl)acetamide] | >63 | 26.5 | – | – | – | 364 |
| O=C(Cc1ccccn1)NCCCn1c(=O)c2cc(F)ccc2n2c(=S)[nH]nc12 [compound 136, N-(3-(7-Fluoro-5-oxo-1-thioxo-1,2-dihydro-[1,2,4]triazolo[4,3-a]quinazolin-4(5H)-yl)propyl)-2-(pyridine-2-yl)acetamide] | 41.4 | >30 | – | – | – | 68.0 |
| O=C(Cc1cccnc1)NCCCn1c(=O)c2cc(F)ccc2n2c(=S)[nH]nc12 [compound 137, N-(3-(7-Fluoro-5-oxo-1-thioxo-1,2-dihydro-[1,2,4]triazolo[4,3-a]quinazolin-4(5H)-yl)propyl)-2-(pyridine-3-yl)acetamide] | 31.8 | >30 | – | – | – | 21.0 |
| CNC(=S)N1CN(CCc2ccccc2)C(=O)c2cc(F)ccc21 [compound 62] | 4.5 | 2.2 | 161 | – | – | – |
| Cc1ccc(CC(=O)NCCCn2c(=O)c3cc(F)ccc3n3c(=S)[nH]nc23)cc1 [compound 126, N-(3-(7-fluoro-5-oxo-1-thioxo-1,2-dihydro-[1,2,4]triazolo[4,3-a]quinazolin-4(5H)-yl)propyl)-2-(p-tolyl)acetamide] | 12.9 | 23.9 | – | – | – | 621 |
| O=C(Cc1ccccc1)NCCCn1c(=O)c2cc(F)ccc2n2c(=S)[nH]nc12 [compound 120, N-(3-(7-fluoro-5-oxo-1-thioxo-1,2-dihydro-[1,2,4]triazolo[4,3-a]quinazolin-4(5H)-yl)propyl)-2-phenylacetamide] | 31.7 | 18.7 | – | – | – | 248 |
| N#Cc1ccccc1CC(=O)NCCCn1c(=O)c2cc(F)ccc2n2c(=S)[nH]nc12 [compound 133, 2-(2-cyanophenyl)-N-(3-(7-fluoro-5-oxo-1-thioxo-1,2-dihydro-[1,2,4]triazolo[4,3-a]quinazolin-4(5H)-yl)propyl)acetamide] | 20.9 | >30 | – | – | – | 156 |
| O=c1c2cc(F)ccc2n2cnnc2n1CCc1ccccc1 [compound 18] | 14.8 | 11.8 | 924 | – | – | – |
| O=C(Cc1ccncc1)NCCCn1c(=O)c2cc(F)ccc2n2c(=S)[nH]nc12 [compound 138, N-(3-(7-fluoro-5-oxo-1-thioxo-1,2-dihydro-[1,2,4]triazolo[4,3-a]quinazolin-4(5H)-yl)propyl)-2-(pyridine-4-yl)acetamide] | 9.6 | >30 | – | – | – | <1 |
| O=C(Cc1ccc(Br)cc1)NCCCn1c(=O)c2cc(F)ccc2n2c(=S)[nH]nc12 [compound 125, 2-(4-bromophenyl)-N-(3-(7-fluoro-5-oxo-1-thioxo-1,2-dihydro-[1,2,4]triazolo[4,3-a]quinazolin-4(5H)-yl)propyl)acetamide] | <1 | 20.6 | – | – | – | 767 |
